# Measurements from patent publication US4126686A, “Analgesic 3-(3-methyl-3-butenyl)-1,2,3,4,5,6-hexahydro-6,11-dimethyl-8-hydroxy-2,6 -methano-3-benzazocine” (priority 1976, dated 1978).
# Read-outs that look alike come from different tables or passages of the source.
# What was measured:
# [1] = tested on: male rats of the Wistar strain; assay: Analgesic activity by bradykinin method; assay type: in vivo, rat (male; conditions: rat
# Experimental: (IV) Analgesic activity by bradykinin method:
# The experiment is carried out according to the method of Abe et al [Nihon Yakuri Gakkai Si (J. Japanese Pharmacological Academy) 67, 9 (1971)].
# (§1) In this experiment, male rats of the Wistar strain weighing 210-260 g were used in groups, each consisting of 10 rats. A cannula is inserted into the right carotid artery of the rat anesthetized with ether. After recovering completely from ether anesthesis, 0.2 ml of a physiological salt solution containing bradykinin in an amount of about 2 μg/ml is injected retrogradely to the rat through the cannula. […] The compound of formula (I), pentazocine or morphine is administered subcutaneously or orally to the rat. At 15, 30, 60, 90 and 120 minutes after the administration of the test compound, bradykinin is injected repeatedly to the rat in a similar manner to that described above. […] ED50 is calculated according to the method of Litchfield and Wilcoxon [J. Pharmacol. & Exper. Therap., 96, 99 (1949 )].
# [2] = Acute toxicity (LD50) in rats; parameters: species or system rat (male, Wistar strain); conditions: in vivo, rat, observed one week
# Experimental: (§2) The LD50 is calculated according to the method of Litchfield and Wilcoxon [J. of Pharmacol. and Exper. Therap., 96, 99 (1949)]. Male mice of the dd strain weighing 19-21 g and male rats of the Wistar strain weighing 80-100 g are used. One group consists of 10 mice or 10 rats. The compound of formula (I) and pentazocine are administered subcutaneously or orally to the test animals which are observed for one week.
# [3] = Margin of safety (R = LD50/ED50), bradykinin, rat; conditions: in vivo, sc, S.C. in rat
# Experimental: as §2, §1
# The usefulness of the compound as medicament is expressed by margin of safety (R) of the compound which is calculated by (LD50 /ED50). […]
# [4] = tested on: male mice of the dd strain; assay: animal or person; assay type: in vivo, mouse (male; conditions: tail flick, mouse, subcutaneous administration
# Experimental: (II) Analgesic activity by Tail Flick method:
# The experiment is carried out according to the method of Tail Flick (D'Amour-Smith method) [J. Pharmacol., 72, 74 (1941)].
# A light beam of an infrared lamp (100 V; 250W) is passed through a hole having a diameter of a half inch and is irradiated onto the end of the tail of each mouse (male dd strain; weight: 19-21 g) to effect a heat stimulation. […] The compound of formula (I), pentazocine or morphine is administered subcutaneously to the mice. At 15, 30, 60, 90 and 120 minutes after the administration, the heat stimulation is repeatedly carried out to the mice in a similar manner to that described above and after each heat stimulation the time until the flick reaction occurs is measured. […] ED50 is calculated according to the above-mentioned method of Litchfield and Wilcoxon.
# [5] = tested on: male mice of the dd strain; assay: Analgesic activity by tail pinch method; assay type: in vivo, mouse (male; conditions: mouse
# Experimental: (III) Analgesic activity by tail pinch method:
# The experiment is carried out according to the method of H. Takagi et al [Jap. J. Pharmacol., 16, 287 (1966)].
# In this experiment, male mice of the dd strain weighing 19-21 g are used in groups, each consisting of 10 mice. Before the experiment, animals which are sensitive to pressure stimulation are selected in the following manner.
# The compound of formula (I), pentazocine or morphine is administered subcutaneously or orally to the selected mice. At 15, 30, 60, 90, and 120 minutes after the administration, an artery clip is repeatedly applied to the root of the tail of each mouse. […] ED50 is calculated according to the method of Litchfield and Wilcoxon [J. Pharmacol. & Exper. Therap., 96, 99 (1949)].
# [6] = Margin of safety (R = LD50/ED50), acetic acid writhing, mouse; conditions: in vivo
# Experimental: as §2
# (§3) Male mice of the dd strain weighing 19-21 g are used in groups, each consisting of 10 mice. The test compounds, i.e. the compound of formula (I), pentazocine and morphine are administered subcutaneously or orally to the test mice. Immediately after this, 0.2 ml of a 0.7% (v/v) aqueous solution of acetic acid is administered intraperitoneally to the test mice except those which has been administered orally with morphine, to which 0.2 ml of a 0.7% (v/v) aqueous solution of acetic acid is administered intraperitoneally at 15 minutes after a morphine administration. The mice of a control group are not administered with the test compounds but with only the acetic acid solution in a similar manner to that described above. At 10 minutes after the administration of acetic acid, the number of writhes is counted for 10 minutes. When the writhing numbers of the test group decrease to below 50% of the corresponding numbers of the control group, the test compound is determined to be analgesically active. ED50 is calculated according to the method of Litchfield and Wilcoxon [J. Pharmacol. & Exper. Therap., 96, 99 (1949)].
# The usefulness of the compound as medicament is expressed by margin of safety (R) of the compound which is calculated by (LD50 /ED50). Compounds having higher R are deemed to be more useful as medicament than those having lower R. The margins of safety of the compound of formula (I) and pentazocine are shown in Table 6.
# [7] = Acute toxicity (LD50) in mice; parameters: species or system mouse (male, dd strain); conditions: in vivo, mouse, observed one week
# Experimental: as §2
# [8] = Analgesic activity compared with pentazocine (general statement); assay type: in vivo; conditions: in words
# [9] = tested on: male mice of the dd strain; assay: Analgesic activity by acetic acid writhing method; assay type: in vivo, mouse (male; conditions: mouse
# Experimental: (I) Analgesic activity by acetic acid writhing method:
# The experiment is carried out according to the method of Koster et al [Fed. Proc., 18, 412 (1959)].
# as §3, with “The mice of a control group are not administered with the test compounds but with only the acetic acid solution in a similar manner to that described above.” left out, “When the writhing numbers of the test group decrease to below 50% of the corresponding numbers of the control group, the test compound is determined to be analgesically active.” left out
# [10] = oral administration, read-out: ED50
# [11] = sc, subcutaneous administration, read-out: ED50
# [12] = sc, subcutaneous administration
smiles,measurement,setting,value
"C=C(C)CCN1CCC2(C)c3cc(O)ccc3CC1C2C (stereo not drawn) [Compound of formula (I), 3-(3-methyl-3-butenyl)-1,2,3,4,5,6-hexahydro-6,11-dimethyl-8-hydroxy-2,6-methano-3-benzazocine]",ED50,[1]; [10],35 mg/kg
same,ED50,[1]; [11],0.38 mg/kg
same,LD50 at 168 h,[2]; [12],61 mg/kg
same,LD50 at 168 h,[2]; oral administration,> 300 mg/kg
same,selectivity ratio,[3],161
same,ED50,"[4]; sc, read-out: ED50",0.76 mg/kg
same,ED50,[5]; [10],29.3 mg/kg
same,ED50,[5]; [11],0.51 mg/kg
same,selectivity ratio,"[6]; po, P.O. in mouse",14.3
same,selectivity ratio,"[6]; sc, S.C. in mouse",889
same,LD50 at 168 h,[7]; [12],80 mg/kg
same,LD50 at 168 h,[7]; oral administration,205 mg/kg
same,analgesic activity,[8],unexpectedly a better analgesic activity than the known pentazocine
same,ED50,[9]; [10],14.3 mg/kg
same,ED50,[9]; [11],0.09 mg/kg
"CN1CC[C@]23c4c5ccc(O)c4O[C@H]2[C@@H](O)C=C[C@H]3[C@H]1C5 [Morphine, morphine]",ED50,[1]; oral administration,85 mg/kg
same,ED50,[1]; subcutaneous administration,4.8 mg/kg
same,ED50,[4],5.2 mg/kg
same,ED50,[5]; oral administration,35.5 mg/kg
same,ED50,[5]; subcutaneous administration,3.5 mg/kg
same,ED50,[9]; oral administration,5.1 mg/kg
same,ED50,[9]; subcutaneous administration,0.56 mg/kg
"CC(C)=CCN1CCC2(C)c3cc(O)ccc3CC1C2C (stereo not drawn) [Pentazocine, 3-(3-methyl-2-butenyl)-1,2,3,4,5,6-hexahydro-6,11-dimethyl-8-hydroxy-2,6-methano-3-benzazocine]",ED50,[1]; [10],> 100 mg/kg
same,ED50,[1]; [11],10.5 mg/kg
same,LD50 at 168 h,[2]; [12],165 mg/kg
same,LD50 at 168 h,[2]; oral administration,> 400 mg/kg
same,selectivity ratio,[3],15.7
same,ED50,"[4]; sc, read-out: ED50",> 40 mg/kg
same,ED50,[5]; [10],> 40 mg/kg
same,ED50,[5]; [11],> 40 mg/kg
same,selectivity ratio,"[6]; po, P.O. in mouse",3.7
same,selectivity ratio,"[6]; sc, S.C. in mouse",40.6
same,LD50 at 168 h,[7]; [12],140 mg/kg
same,LD50 at 168 h,[7]; oral administration,305 mg/kg
same,ED50,[9]; [10],82 mg/kg
same,ED50,[9]; [11],3.45 mg/kg
